Results from patent US20260337177A1, “TEAD CORE INHIBITORS FOR CANCER THERAPEUTICS” (University of Florida Research Foundation, Incorporated, priority 2023, published 2026).

How the values were obtained:
CTGF [1] = assay: CTGF mRNA expression by RT-qPCR in Huh7 cells; format: cell-based, human; conditions: dose-dependent
Protocol: (§1) Huh7 and HepG2 liver cancer cells were seeded at 1×10^6 cells/dish and allowed to adhere overnight. The cells were then treated with indicated doses of compounds in medium for 24 hours. The cells were then harvested, and total RNA was purified using the Aurum total RNA mini kit (Bio-Rad #732-6820) according to the manufacturer's instructions. Complementary DNA was synthesized from 500 ng total RNA template by iScript reverse transcription kit (Bio-Rad #1725037) according to the manufacturer's instructions. Real-time PCR reactions utilized 60 ng cDNA and PrimePCR primers from Bio-Rad (Unique Assay ID: human GAPDH-qHsaCEP0041396, human CTGF-qHsaCEP0024255, human CYR61-qHsaCEP0024230) designed for SYBR Green gene expression analysis (Bio-Rad #1726270). All reactions were carried out in triplicate using Quant Studio 3 PCR system (Applied Biosystems). Relative gene expression level was quantified via ΔΔCt method by using GAPDH as an endogenous reference.

CYR61 = CYR61 mRNA expression by RT-qPCR in Huh7 cells; format: cell-based, human; conditions: dose-dependent
Protocol: as §1

TEADs = assay: TEAD-specific 8×GTIIC-luciferase reporter assay; format: cell-based
Protocol: A series of compounds featuring a chloromethyl ketone moiety were synthesized (Schemes 1-4). The inhibitory rate of this series of compounds was tested using 8×GTIIC-luciferase reporter assay at 10 μM.
Next, the inhibition of TEAD transcription activity of compounds was tested varying the dosage using the 8×GTIIC-luciferase reporter assay. […] The aim was to determine whether its inhibition of TEAD transcription can lead to downregulation of the YAP-TEAD target genes. CTGF is one of the best characterized (bona fide) target gene of YAP and TAZ.
To further investigate the mechanism of the inhibitory effect of compounds in Huh7 cells, TEADs specific luciferase reporter assays were performed with compounds 22 and 12 at several concentrations. […] TEAD downstream gene expression patterns were evaluated in liver cancer cells Huh7, which has been evidenced with relative high expression of YAP and TEAD2.
HEK 293T cells were plated at 2×10^4 cells/well in a 96 well microplate and were transfected with 50 ng of 8×GTIIC-luciferase plasmid (Addgene #34615) and 0.5 ng of pRL-CMV (Promega #E226A) by using lipofectamine 3000 (Life Technologies #L3000). The 8×GTIIc-luciferase reporter is a Yap/Taz-activity reporter containing eight TEAD consensus binding sequences. After 6 h, transfected cells were treated with various concentrations of compounds or DMSO control. Luciferase signals were measured using the Dual Luciferase Reporter Assay System (Promega, E1960) according to the manufacturer's instructions. Experiments were performed in triplicate and repeated at least three times.

Huh7 xenograft = assay: Huh7 mouse xenograft model, antitumor efficacy; format: in vivo, NSG mouse
Protocol: Based on the favorable in vitro potency and low toxicity, the in vivo antitumor efficacy of compound 22 was further evaluated in the NSG mouse (NOD scid gamma mouse) xenograft model from human Huh7 cells. Sorafenib, the first-line treatment for primary hepatocellular carcinoma (HCC) patients, served as the control. Compound 22 was tested as a monotherapy and in combination with Sorafenib.
The animals were administered 10 mg/kg of compound 22 twice a week for four weeks via intraperitoneal (IP) injection.
The mice were administered 50 mg/kg of compound 22 every three day for 24 days via intraperitoneal (IP) injection. Sorafenib was administered orally at a dose of 100 mg/kg following the same schedule.
Tumors were implanted by subcutaneous injection of 5×10^6 Huh7 cells in 100 μL of PBS containing 10% matrix gel (Coming, NY, USA), into the right flank of the mouse. When the tumor volume reached about 85 mm^3, mice were randomized into the vehicle control group (n=5) and a treatment group (n=5). The vehicle group (n=5) received the vehicle only (50% phosal 50 PG, 45% miglyol 810 N and 5% polysorbate 80), while the treatment group (n=5) was given compound 22 (50 mg/kg in 50% phosal 50 PG, 45% miglyol 810 N and 5% polysorbate 80) via IP injection every three days. After 24 days, mice were euthanized. Sorafenib (100 mg/kg, every three day) was dissolved in 75% Ethanol and Cremophor EL (1:1) and administered directly into the animals' stomachs using a gastric probe. Tumor size and body weight were measured every 3 days, and tumor volume was estimated using the formula volume=½×length×width^2. Tumor growth inhibition value (TGI) was calculated as TGI (%) [1−Vt/Vc]×100, where Vc and Vt were […].

CTGF [2] = assay: CTGF mRNA expression by RT-qPCR in HepG2 cells; format: cell-based, human; conditions: dose-dependent
Protocol: as §1

HepG2 cells = assay: Apoptosis by Annexin V/PI flow cytometry, HepG2; format: cell-based, human; conditions: 10 μM; 48 h
Protocol: In order to gain deeper insights into the underlying anticancer mechanism of compound 22, experiments were performed to validate whether the induction of G1 phase cells by compound 22 was linked to apoptosis. To achieve this, the cells treated with compound 22 were subjected to PI and FITC-annexin V staining to detect apoptotic cells. […] The proportions of total apoptosis including the early stage apoptosis and the later stage of apoptosis were 66.8%, and 83.5%, respectively, at concentrations of 5 and 10 μM. This trend was similarly observed in the case of HepG2 cells. […] The impact of compound 22 on inducing cell apoptosis was less pronounced in HepG2 cells compared to Huh7 cells, aligning with the outcomes of the cell cycle analysis, providing further coherence to the observed effects of compound 22 on these cell lines.
Apoptosis was detected using an Annexin V-FITC apoptosis detection kit (Thermo Fisher Scientific) following the manufacturer’ instructions. Briefly, about 50000 cells were suspended in 500 μl of binding buffer. The cells were incubated with 5 μl FITC-conjugated Annexin V for 15 minutes and incubated with 5 μl propidium Iodide staining solution for 15 minutes in darkness at room temperature. Cell apoptosis was then analyzed by flow cytometry using a FACSCalibur flow cytometer (Becton Dickinson, San Jose, CA).

Compound: O=C(CCl)c1c[nH]c2cc(Cl)c(OCc3cccc(C(F)(F)F)c3)cc12 [Compound 22, 2-chloro-1-(6-chloro-5-((3-(trifluoromethyl)benzyl)oxy)-1H-indol-3-yl)ethan-1-one]
- CTGF mRNA expression, Huh7 (CTGF [1]): suppressed
- CTGF mRNA expression, Huh7 (CTGF [1]; listed as compound 22): significantly inhibited
- CYR61 mRNA expression, Huh7 (CYR61): significantly inhibited
- inhibition at 10 µM (TEADs; 10 μM, 8×GTIIC-luciferase, read-out: Luciferase reporter assay inhibitory rate): 93.6%
- IC50 (TEADs; dose response, read-out: TEADs transcription inhibition IC50, luciferase reporter assay): 2100 nM
- Tumor growth inhibition (TGI) rate (Huh7 xenograft; 10 mg/kg IP twice a week for four weeks): 78%
- Tumor growth inhibition (TGI) rate (Huh7 xenograft; 50 mg/kg IP every three days for 24 days): 75%
- Body weight change (Huh7 xenograft; xenograft mice, FIG. 6C): No significant change
- CTGF mRNA expression, HepG2 (CTGF [2]): significantly inhibited
- Maximum apoptotic rate (early+late apoptotic), HepG2 (HepG2 cells): 69.0%
